Experimental findings from US10947252B2, “Inhibitors of KEAP1-Nrf2 protein-protein interaction” (Janssen Pharmaceutica NV, priority 2018, dated 2021) are described below.

The target of assay [1] is Kelch domain of human KEAP1 (321-624 aa) (Homo sapiens (Human), UniProt Q14145). Kind of assay: KEAP1 KELCH ThermoFluor binding assay.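 Also: Ligand-induced melting temperature shift of E. coli-expressed KEAP1 Kelch protein, Kd estimated from concentration-response curves of ΔTm.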 To be noted: KEAP Kelch […], 1,8-ANS, pH 7.0, average of results obtained, read-out: Tf Kd. In general terms: DSF heats the sample and reads unfolding from a dye or from intrinsic fluorescence.
The test system of assay [2] is Glo-Response ARE-luc2P HEK293 cell line. Kind of assay: ARE luciferase reporter cell-based assay.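 Also: luciferase signal tracks Nrf2 activation of the ARE once compounds disrupt KEAP1-Nrf2 binding, read with One-Glo reagent, DMSO serving as low control.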 The following applies: Homo sapiens, HEK293, 24 h, average of results obtained. For orientation: In a reporter assay the amount or activity of a reporter protein is the signal.
Experimental: The ARE assay utilizes a luciferase reporter cell line where the signal is proportional to NrF2 activation of the ARE. The cell line is commercially available from Promega and was prepared by stably transfecting HEK293 cells with a vector (pGL4.11) which contains the ARE response element upstream of a minimal promoter. The promoter drives expression of luc2 firefly luciferase gene. Upon disruption of KEAP1-Nrf2 binding by compound, Nrf2 translocates into the nucleus where it binds to the ARE and activates transcription of luciferase.
The materials used in this ARE assay are as follows: Glo-Response ARE-luc2P HEK293 cell line and One-Glo Luciferase Assay System were purchased from Promega (Madison, Wis.). Dulbecco's Modified Eagle medium ((DMEM), low glucose, GlutaMAX, pyruvate), fetal bovine serum (certified, heat inactivated), hygromycin B, Dulbecco's phosphate-buffered saline were purchased from Life Technologies (Grand Island, N.Y.). Penicillin, streptomycin solution (100×) and 0.05% trypsin-EDTA were purchased from Corning (Manassas, Va.). DMSO was purchased from EMD Millipore.
The ARE assay protocol is as follows: cells were maintained in growth medium (DMEM+10% FBS, 200 μg/mL hygromycin B, p-s) between 20-90% confluency by splitting twice per week. One day before the assay, cells were trypsinized, counted to determine viable cell count, and re-suspended in assay medium (DMEM+10% FBS, p-s) at 250,000 cells/mL. […] 100% DMSO was used as the low control. A 11-point dose series of the control compound was included on every plate. Compounds were spotted to an intermediate plate (Greiner #781280 V-bottom 384 well plate) using the Echo acoustic dispenser (Labscyte San Jose, Calif.). Spot size was 240 nL.
On the day of the assay, 60 mL per well of assay medium was added to the pre-spotted plate to make 2× compound stocks using the Combi (Thermo Waltham, Mass.). Compound and medium were mixed on the Janus and 20 mL of 2×compound stock was added to the cell plate which already contained 20 mL of assay medium from cell plating. […] The plates were returned to the tissue culture incubator for 24 hours.
The next day, luciferase activity was measured according to the manufacturer's protocol for One-Glo luciferase reagent. The plates were removed from the incubator and allowed to equilibrate to room temperature for 30 min. Forty microliters of One-Glo reagent (equilibrated to room temperature) was added per well using the Combi. The plates were mixed on an orbital shaker for 3 min. Luminescence was read on the BMG Pherastar multiplate reader (Cary, N.C.) using the luminescence protocol (1 sec interval).
The dose-response data were analyzed in Genedata Screener using 4PL nonlinear regression model. Raw luminescence counts as well as normalized values were used for data analysis.

Sequence of Kelch domain of human KEAP1 (321-624 aa) (Q14145 321-624): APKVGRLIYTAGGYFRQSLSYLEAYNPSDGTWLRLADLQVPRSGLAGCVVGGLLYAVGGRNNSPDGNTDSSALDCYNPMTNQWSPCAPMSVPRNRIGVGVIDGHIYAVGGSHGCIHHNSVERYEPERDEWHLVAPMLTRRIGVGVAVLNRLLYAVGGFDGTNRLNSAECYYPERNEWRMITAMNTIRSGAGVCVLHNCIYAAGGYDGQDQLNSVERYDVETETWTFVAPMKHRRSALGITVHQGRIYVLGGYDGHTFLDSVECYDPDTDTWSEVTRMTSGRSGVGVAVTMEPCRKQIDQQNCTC

Regarding `CCn1nnc2c(C)c(C(CC(=O)O)c3ccc(C)c(CN4CC5(CCOCC5)Oc5ccc(F)cc5S4(=O)=O)n3)ccc21` (racemic) [Example 417, 3-(1-Ethyl-4-methyl-1H-benzo[d][1,2,3]triazol-5-yl)-3-(6-((8-fluoro-1,1-dioxido-2′,3′,5′,6′-tetrahydrospiro[benzo[b][1,4,5]oxathiazepine-4,4′-pyran]-2(3H)-yl)methyl)-5-methylpyridin-2-yl)propanoic acid], the equilibrium dissociation constant (Kd) (commonly a measure of binding affinity in units of concentration) in assay [1] is below 1 nM. In addition, in assay [2], the EC50 (as a rule, the concentration needed to bring the measured effect to its halfway point) amounted to 1.77 nM.

In the case of `Cc1ccc([C@H](c2ccn3c(C(F)(F)F)nnc3c2C)C(C)(C)C(=O)O)cc1CN1CC2(CCOCC2)Oc2nc(NC3CC(O)C3)c(C)cc2S1(=O)=O` (single isomer, unassigned) [Example 361, (*R)-3-(3-((7′-(((1R,3R)-3-Hydroxycyclobutyl)amino)-8′-methyl-1′,1′-dioxido-2,3,5,6-tetrahydrospiro[pyran-4,4′-pyrido[2,3-b][1,4,5]oxathiazepin]-2′(3′H)-yl)methyl)-4-methylphenyl)-2,2-dimethyl-3-(8-methyl-3-(trifluoromethyl)-[1,2,4]triazolo[4,3-a]pyridine-7-yl)propanoic Acid], the dissociation constant Kd in assay [1] was below 1 nM. Also, it took 60.4 nM to reach a half-maximal effect in assay [2] (EC50).

For the compound `Cc1ccc(C(CC(=O)O)c2ccc3c(nnn3CC3CC3)c2C)cc1CN1C[C@H]2CCCCN2c2ncccc2S1(=O)=O` (mixture of isomers) [Example 234, (R/S)-3-(1-(Cyclopropylmethyl)-4-methyl-1H-benzo[d][1,2,3]triazol-5-yl)-3-(3-(((*R)-5,5-dioxido-7,7a,8,9,10,11-hexahydro-6H-dipyrido[2,1-d:2′,3′-f][1,2,5]thiadiazepin-6-yl)methyl)-4-methylphenyl)propanoic Acid], the Kd in assay [1] is below 1 nM. In assay [2], this compound returned an EC50 of 3.3 nM.

For the compound `Cc1ccc(C(CC(=O)O)c2ccn3c(C(F)(F)F)nnc3c2C)cc1CN1CC2(CC2)N(C)c2ncccc2S1(=O)=O` (racemic) [Example 183, (R/S)-3-(4-Methyl-3-((5′-methyl-1′,1′-dioxido-5′H-spiro[cyclopropane-1,4′-pyrido[2,3-f][1,2,5]thiadiazepin]-2′(3′H)-yl)methyl)phenyl)-3-(8-methyl-3-(trifluoromethyl)-[1,2,4]triazolo[4,3-a]pyridin-7-yl)propanoic Acid], in assay [1], the dissociation constant (Kd) is 1.6 nM. The same compound gave an EC50 in assay [2] of 370 nM.

As to `Cc1ccc([C@@H](CC(=O)O)c2ccn3c(C(F)(F)F)nnc3c2C)cc1CN1C[C@]2(C)CCCN2c2ncccc2S1(=O)=O` (single isomer, unassigned) [Example 187, (*R)-3-(4-Methyl-3-(((*S)-7a-methyl-5,5-dioxido-7a,8,9,10-tetrahydropyrido[2,3-f]pyrrolo[2,1-d][1,2,5]thiadiazepin-6(7H)-yl)methyl)phenyl)-3-(8-methyl-3-(trifluoromethyl)-[1,2,4]triazolo[4,3-a]pyridin-7-yl)propanoic Acid], in assay [1], the Kd is below 1 nM. In addition, in assay [2], the EC50 is 550 nM.

For `Cc1cc2cc(C(CC(=O)O)c3ccc(C)c(CN4C[C@@H]5CCCN5c5ncccc5S4(=O)=O)c3)n(C)c2nn1` (mixture of isomers) [Example 437, 3-(3,7-Dimethyl-7H-pyrrolo[2,3-c]pyridazin-6-yl)-3-(3-(((S)-5,5-dioxido-7a, 8,9,10-tetrahydropyrido[2,3-f]pyrrolo[2,1-d][1,2,5]thiadiazepin-6(7H)-yl)methyl)-4-methylphenyl)propanoic Acid], the dissociation constant (Kd) in assay [1] stood at 1.84 nM. The compound further showed an EC50 in assay [2] of 4380 nM.

Regarding `Cc1cnc([C@H](c2ccn3c(C(F)(F)F)nnc3c2C)C(C)(C)C(=O)O)cc1CN1CC2(CCOCC2)Oc2ncccc2S1(=O)=O` (single isomer, unassigned) [Example 57, (*R)-3-(4-((1′,1′-Dioxido-2,3,5,6-tetrahydrospiro[pyran-4,4′-pyrido[2,3-b][1,4,5]oxathiazepin]-2′(3′H)-yl)methyl)-5-methylpyridin-2-yl)-2,2-dimethyl-3-(8-methyl-3-(trifluoromethyl)-[1,2,4]triazolo[4,3-a]pyridin-7-yl)propanoic Acid], in assay [1], the equilibrium dissociation constant (Kd) was 5670 nM. Moreover, in assay [2], the concentration for a half-maximal effect (EC50) turned out to be 6660 nM.

As to `Cc1ccc([C@H](CC(=O)O)c2ccn3c(C)nnc3c2)cc1CN1C[C@H]2CCCN2c2ccccc2S1(=O)=O` (single isomer, unassigned) [Example 165, (*S)-3-(3-(((R)-5,5-Dioxido-7a,8,9,10-tetrahydrobenzo[f]pyrrolo[2,1-d][1,2,5]thiadiazepin-6(7H)-yl)methyl)-4-methylphenyl)-3-(3-methyl-[1,2,4]triazolo[4,3-a]pyridin-7-yl)propanoic Acid], in assay [1], the Kd was below 1 nM. In assay [2], this compound returned an EC50 of 1490 nM.

With `CC[C@@H]1CN(Cc2cc(C(CC(=O)O)c3ccn4c(C(F)(F)F)nnc4c3)ccc2C)S(=O)(=O)c2cccnc2O1` (single isomer, unassigned) [Example 258, (*R)-3-(3-(((R)-4-Ethyl-1,1-dioxido-3,4-dihydro-2H-pyrido[2,3-b][1,4,5]oxathiazepin-2-yl)methyl)-4-methylphenyl)-3-(3-(trifluoromethyl)-[1,2,4]triazolo[4,3-a]pyridin-7-yl)propanoic Acid], the Kd in assay [1] is below 1 nM. In addition, a half-maximal effect in assay [2] (EC50) was put at 428 nM.

Regarding `Cc1ccc(C(CC(=O)O)c2ccn3c(C(F)F)nnc3c2C)cc1CN1C[C@@H]2CCCN2c2ncc(C#N)cc2S1(=O)=O` (mixture of isomers) [Example 542, 3-(3-(((S)-3-Cyano-5,5-dioxido-7a,8,9,10-tetrahydropyrido[2,3-f]pyrrolo[2,1-d][1,2,5]thiadiazepin-6(7H)-yl)methyl)-4-methylphenyl)-3-(3-(difluoromethyl)-8-methyl-[1,2,4]triazolo[4,3-a]pyridin-7-yl)propanoic Acid], the Kd in assay [1] is below 1 nM. The same compound yielded a half-maximal effective concentration (EC50) in assay [2] of 59.6 nM.

Regarding `Cc1cnc2c(c1)S(=O)(=O)N(Cc1cc([C@@H](c3ccn4c(C(F)(F)F)nnc4c3C)C(C)(C)C(=O)O)cnc1C)CC1(CCOCC1)O2` (single isomer, unassigned) [Example 586, (*R)-2,2-Dimethyl-3-(8-methyl-3-(trifluoromethyl)-[1,2,4]triazolo[4,3-a]pyridin-7-yl)-3-(6-methyl-5-((8′-methyl-1′,1′-dioxido-2,3,5,6-tetrahydrospiro[pyran-4,4′-pyrido[2,3-b][1,4,5]oxathiazepin]-2′(3′H)-yl)methyl)pyridin-3-yl)propanoic Acid], the equilibrium dissociation constant (Kd) in assay [1] is 6380 nM. The compound also displayed an EC50 in assay [2] above 20000 nM.

Turning to `Cc1cnc2c(c1)S(=O)(=O)N(Cc1cc([C@@H](c3ccn4c(C(F)(F)F)nnc4c3C)C(C)(C)C(=O)O)ncc1C)CC1(CC1)O2` (single isomer, unassigned) [Example 588, (*S)-2,2-Dimethyl-3-(8-methyl-3-(trifluoromethyl)-[1,2,4]triazolo[4,3-a]pyridin-7-yl)-3-(5-methyl-4-((8′-methyl-1′,1′-dioxidospiro[cyclopropane-1,4′-pyrido[2,3-b][1,4,5]oxathiazepin]-2′(3′H)-yl)methyl)pyridin-2-yl)propanoic Acid], the Kd in assay [1] was below 1 nM. Besides, a half-maximal response in assay [2] (EC50) required 7.64 nM.

Take `Cc1ccc([C@@H](CC(=O)O)c2ccc3c(nnn3C3CC3)c2C)cc1CN1C[C@@H]2COCCN2c2ncccc2S1(=O)=O` (single isomer, unassigned) [Example 25, (*R)-3-(1-Cyclopropyl-4-methyl-1H-benzo[d][1,2,3]triazol-5-yl)-3-(3-(((*R)-5,5-dioxido-7a,8,10,11-tetrahydro-[1,4]oxazino[3,4-d]pyrido[2,3-f][1,2,5]thiadiazepin-6(7H)-yl)methyl)-4-methylphenyl)propanoic Acid]: the Kd in assay [1] is 2.12 nM. In assay [2], this compound gave a half-maximal effective concentration (EC50) of 21 nM.

On to `Cc1ccc(C(CC(=O)O)c2ccn3c(C(F)F)nnc3c2C)cc1CN1CC2(COC2)Oc2ncccc2S1(=O)=O` (stereo not shown) [Example 469, 3-(3-(Difluoromethyl)-8-methyl-[1,2,4]triazolo[4,3-a]pyridin-7-yl)-3-(3-((1′,1′-dioxidospiro[oxetane-3,4′-pyrido[2,3-b][1,4,5]oxathiazepin]-2′(3′H)-yl)methyl)-4-methylphenyl)propanoic Acid], for which the dissociation constant Kd in assay [1] is below 1 nM. Also, the EC50 in assay [2] came to 608 nM.

Turning to `Cc1ccc([C@H](c2ccn3c(C(F)F)nnc3c2C)C(C)(C)C(=O)O)nc1CN1CC2(CC2)Oc2nc(OCCN3CCCC3)c(C)cc2S1(=O)=O` (single isomer, unassigned) [Example 359, (*R)-3-(3-(Difluoromethyl)-8-methyl-[1,2,4]triazolo[4,3-a]pyridin-7-yl)-2,2-dimethyl-3-(5-methyl-6-((8′-methyl-1′,1′-dioxido-7′-(2-(pyrrolidin-1-yl)ethoxy)spiro[cyclopropane-1,4′-pyrido[2,3-b][[,4,5]oxathiazepin]-2′(3′H)-yl)methyl)pyridin-2-yl)propanoic Acid], in assay [1], the equilibrium dissociation constant (Kd) is below 1 nM. Besides, a half-maximal effect in assay [2] (EC50) was put at 1230 nM.

On to `Cc1ccc([C@H](CC(=O)O)c2ccn3c(C(F)(F)F)nnc3c2C)cc1CN1C[C@H]2COCCN2c2ncc(Cl)cc2S1(=O)=O` (single isomer, unassigned) [Example 197, (*S)-3-(3-(((*S)-3-Chloro-5,5-dioxido-7a,8,10,11-tetrahydro-[1,4]oxazino[3,4-d]pyrido[2,3-f][1,2,5]thiadiazepin-6(7H)-yl)methyl)-4-methylphenyl)-3-(8-methyl-3-(trifluoromethyl)-[1,2,4]triazolo[4,3-a]pyridin-7-yl)propanoic Acid], for which the dissociation constant Kd in assay [1] is below 1 nM. The compound further came in with an EC50 in assay [2] of 1.8 nM.

As for `Cc1ccc(C(CC(=O)O)c2ccn3c(C)nnc3c2)cc1CN1CC(C)(C)Oc2ncccc2S1(=O)=O` (racemic) [Example 160, (R/S)-3-(3-((4,4-Dimethyl-1,1-dioxido-3,4-dihydro-2H-pyrido[2,3-b][1,4,5]oxathiazepin-2-yl)methyl)-4-methylphenyl)-3-(3-methyl-[1,2,4]triazolo[4,3-a]pyridin-7-yl)propanoic Acid], in assay [1], the Kd was below 1 nM. Also, the EC50 in assay [2] is 19000 nM.
